Results reported in US20070105158A1, “Recombined cell system for deorphanizing g protein-coupled receptors” (Deutsches Institut fur Ernahrungsforschung-Stiftun, priority 2003, published 2007).
Positions count from the first letter of the chain named. “And” between values parts separate entries of the source, which are not always exact repeats. Equal values may be shown once. Read-outs that look alike come from different tables or passages of the source.

Legend:
[1] = target: T1, rho-tag(39)-Olfr49 (Mus musculus, UniProt Q9Z1V0); test: Odorant-induced Ca2+ influx (FLIPR) in forskolin-pre-treated HeLa-Cx43/CNGA2 cells expressing rho-tag(39)-Olfr49; assay type: cell-based
T1 construct: PCR-amplified the full-length coding regions of mouse Olfr49 (1-C6, NM010991); rho-tag(39): first 39 amino acids of bovine rhodopsin (N); expressed in transfected cells
T1 sequence (Q9Z1V0 1-313): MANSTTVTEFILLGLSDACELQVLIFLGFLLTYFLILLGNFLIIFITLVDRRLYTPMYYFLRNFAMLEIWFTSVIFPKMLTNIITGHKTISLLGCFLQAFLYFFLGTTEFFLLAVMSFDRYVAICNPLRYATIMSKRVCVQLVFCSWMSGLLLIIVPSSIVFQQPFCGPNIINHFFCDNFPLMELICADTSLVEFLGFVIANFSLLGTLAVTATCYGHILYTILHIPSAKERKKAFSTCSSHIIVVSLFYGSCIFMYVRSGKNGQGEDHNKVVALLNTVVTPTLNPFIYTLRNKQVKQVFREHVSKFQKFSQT

[2] = target: T2, mOR267-1 (Mus musculus, UniProt Q8VBW9); settings: chimera F2 and rho-tag(39)-full length OR, n=3
T2 sequence (Q8VBW9 1-316): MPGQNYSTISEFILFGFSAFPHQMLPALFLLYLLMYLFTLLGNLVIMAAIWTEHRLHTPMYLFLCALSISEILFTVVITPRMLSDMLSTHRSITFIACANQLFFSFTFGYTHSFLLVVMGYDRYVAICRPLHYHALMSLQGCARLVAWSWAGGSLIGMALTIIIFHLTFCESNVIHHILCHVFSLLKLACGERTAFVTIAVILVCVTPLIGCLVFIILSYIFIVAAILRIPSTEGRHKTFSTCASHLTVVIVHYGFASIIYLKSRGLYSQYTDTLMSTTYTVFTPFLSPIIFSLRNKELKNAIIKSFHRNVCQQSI

[3] = test system: rho-tag(20)-M4 chimeric mouse ORs; assay type: cell-based; settings: for Responding OR chimeras: 93 OR chimeras
[4] = target: T3, Olfr43 (Mus musculus, UniProt Q7TRX1); settings: 1 μM, chimera A1 and rho-tag(39)-full length OR, n=3
T3 sequence (Q7TRX1 1-313): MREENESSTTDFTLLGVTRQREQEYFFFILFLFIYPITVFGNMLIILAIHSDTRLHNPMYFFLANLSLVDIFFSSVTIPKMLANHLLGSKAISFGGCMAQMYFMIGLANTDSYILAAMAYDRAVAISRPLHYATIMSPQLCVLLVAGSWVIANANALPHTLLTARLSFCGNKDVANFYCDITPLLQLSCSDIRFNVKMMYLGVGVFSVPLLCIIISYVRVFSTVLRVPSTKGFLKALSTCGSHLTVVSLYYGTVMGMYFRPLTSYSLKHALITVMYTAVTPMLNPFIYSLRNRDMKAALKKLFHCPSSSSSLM

[5] = target: T4, CNGA2 channel (Bos taurus, UniProt Q03041); test: Inhibition of db-cAMP-activated CNGA2-dependent Ca2+ influx into HeLa-Cx43/CNGA2 cells; assay type: cell-based, bovine; settings: for Block of db-cAMP-induced Ca2+ influx by CNGA2: n=2
T4 construct: expressed in transfected cells
T4 sequence (Q03041 1-663): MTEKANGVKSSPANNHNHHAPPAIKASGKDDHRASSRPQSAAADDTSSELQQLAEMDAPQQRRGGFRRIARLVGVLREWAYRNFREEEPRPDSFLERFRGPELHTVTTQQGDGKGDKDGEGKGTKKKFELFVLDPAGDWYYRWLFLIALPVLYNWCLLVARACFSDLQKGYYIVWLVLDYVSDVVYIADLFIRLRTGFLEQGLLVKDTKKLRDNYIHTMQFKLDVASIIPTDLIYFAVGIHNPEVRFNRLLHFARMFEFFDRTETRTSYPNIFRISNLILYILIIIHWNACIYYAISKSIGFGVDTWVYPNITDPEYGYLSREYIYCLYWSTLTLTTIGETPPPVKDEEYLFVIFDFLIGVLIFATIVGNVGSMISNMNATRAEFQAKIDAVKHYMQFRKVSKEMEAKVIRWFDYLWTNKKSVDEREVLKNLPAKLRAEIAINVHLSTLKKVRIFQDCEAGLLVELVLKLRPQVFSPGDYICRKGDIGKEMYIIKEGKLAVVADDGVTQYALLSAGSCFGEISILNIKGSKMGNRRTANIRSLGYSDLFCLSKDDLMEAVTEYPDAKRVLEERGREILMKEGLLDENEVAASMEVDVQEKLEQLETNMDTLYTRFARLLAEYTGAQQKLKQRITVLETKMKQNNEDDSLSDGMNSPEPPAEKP

[6] = target: T1, rho-tag(39)-Olfr49; assay type: cell-based; settings: for Effect of pre-treatment on (−)citronellal-induced cAMP production: (−)citronellal 10 μM, thapsigargin 1 μM
Method: After 40 hours, the cells were pre-incubated with IBMX (100 μM, 30 min) and exposed to (−)citronellal or isoproterenol (2 min). The pre-stimulation with forskolin was generally omitted.
The inventors tested the possibility to follow an increase in cGMP by transfecting of the rat particular guanylyl cyclase type B (GC-B) into HeLa-Cx43/CNGA2 cells, for which the C type natriuretic peptide (CNP) is the known agonist (Lucas et al., 2000). […] The quantitative comparison of the relative potencies of the agonists by determining of their EC50 values is a standard method in the GPCR and agonist-classification.

[7] = target: T5, Olfr49 (Mus musculus, UniProt Q9Z1V0); settings: n=3
T5 sequence (Q9Z1V0 1-313): T1 sequence (Q9Z1V0 1-313)

[8] = target: T6, rho-tag(39)-LOC331758 (Mus musculus, UniProt Q7TRX2)
T6 sequence (Q7TRX2 1-313): T3 sequence (Q7TRX1 1-313) with T10I, G106S, A108G, P306H
Source text: (§1) In in situ RNA hybridisation-experiments, the inventors examined the gene expression of Olfr41, Olfr43, Olfr49, MOR261-10, MOR267-1, and Ors6 in OSN of the mouse OE.

[9] = target: T7, rho-tag(39)-OR1A1 (Homo sapiens, UniProt Q9P1Q5)
T7 sequence (Q9P1Q5 1-309): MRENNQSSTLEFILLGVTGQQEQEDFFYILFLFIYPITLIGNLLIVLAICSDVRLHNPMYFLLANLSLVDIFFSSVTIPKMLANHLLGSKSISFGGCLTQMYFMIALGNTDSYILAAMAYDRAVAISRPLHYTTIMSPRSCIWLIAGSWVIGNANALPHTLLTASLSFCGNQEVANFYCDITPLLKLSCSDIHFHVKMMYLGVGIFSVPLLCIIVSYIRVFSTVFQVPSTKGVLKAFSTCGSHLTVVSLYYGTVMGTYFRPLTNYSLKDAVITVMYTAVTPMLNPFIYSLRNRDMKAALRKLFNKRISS
Source text: as §1

[10] = target: T8, rho-tag(39)-Olfr43 (Mus musculus, UniProt Q7TRX1)
T8 sequence (Q7TRX1 1-313): T3 sequence (Q7TRX1 1-313)
Source text: as §1

[11] = test system: mOR261-10; settings: 10 μM, chimera H1 and rho-tag(39)-full length OR, n=3
[12] = target: T9, homomeric olfactory CNGA2 channel (Rattus norvegicus, UniProt Q00195); settings: Finn et al., 1998; cited from earlier work
T9 construct: host or cells: HEK293 (in the cited work)
T9 sequence (Q00195 1-664): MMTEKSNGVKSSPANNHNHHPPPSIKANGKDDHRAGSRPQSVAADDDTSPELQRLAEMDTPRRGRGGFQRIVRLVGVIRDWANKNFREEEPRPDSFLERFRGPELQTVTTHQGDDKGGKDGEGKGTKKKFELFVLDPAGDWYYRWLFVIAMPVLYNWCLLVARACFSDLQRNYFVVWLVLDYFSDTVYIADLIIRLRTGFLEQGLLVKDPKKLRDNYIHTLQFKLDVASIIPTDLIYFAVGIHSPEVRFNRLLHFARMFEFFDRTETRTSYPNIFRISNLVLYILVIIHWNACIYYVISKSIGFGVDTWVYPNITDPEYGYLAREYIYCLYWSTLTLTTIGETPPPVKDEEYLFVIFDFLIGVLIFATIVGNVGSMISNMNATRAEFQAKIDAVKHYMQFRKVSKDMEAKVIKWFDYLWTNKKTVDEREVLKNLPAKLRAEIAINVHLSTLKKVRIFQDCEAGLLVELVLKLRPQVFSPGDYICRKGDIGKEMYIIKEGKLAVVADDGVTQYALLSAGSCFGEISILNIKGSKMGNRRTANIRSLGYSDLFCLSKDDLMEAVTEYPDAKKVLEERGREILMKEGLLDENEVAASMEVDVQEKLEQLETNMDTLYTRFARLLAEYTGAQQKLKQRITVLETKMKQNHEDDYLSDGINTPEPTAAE

[13] = test system: rho-tag(39)-Olfr41; assay type: cell-based, mouse; settings: 10 μM, thapsigargin pre-treated cells
[14] = test system: rho-tag(39)-Ors6; assay type: cell-based, mouse; settings: 10 μM, thapsigargin pre-treated cells
[15] = EC50 for odorant-induced Ca2+ influx, stably expressed rho-tag(39)-Olfr49, forskolin-pre-treated

Structure (SMILES): CC(C)=CCCC(C)CC=O (single isomer, unassigned; (+)) [(+)citronellal]
- EC50 [1, 15]: 2.6 ± 0.4 µM

Structure (SMILES): CC(C)=CCCC(C)CC=O (single isomer, unassigned; (-)) [(−)citronellal]
- Response in single cell Ca2+ imaging ([2]; 1 μM): selectively responded
- Responding OR chimeras ([3]; odorant 1 μM): 3%
- Responding OR chimeras ([3]; odorant 3 μM): 43%
- Percentage of responding ORs ([3]; subgroup of 67 OR chimeras, odorant 1 μM, n=1): 9%
- EC50 ([1]; EC50 for (−)citronellal-induced Ca2+ influx, transiently transfected rho-tag(39)-Olfr49, forskolin-pre-treated): 3.9 µM and 4 µM
- EC50 [1, 15]: 2.1 µM
- Response in single cell Ca2+ imaging [4]: selectively responded
- IC50 ([5]; IC50 for block of db-cAMP-induced Ca2+ influx by CNGA2, db-cAMP-pre-treated HeLa-Cx43/CNGA2 cells, FLIPR): 108 µM and 132 µM
- EC50 ([6]; EC50 for (−)citronellal-induced cAMP production, rho-tag(39)-Olfr49 stable cell line, n=2): 0.4 µM and 0.49 µM
- Response in single cell Ca2+ imaging ([7]; 1 μM): selectively responded
- EC50 [8]: 3.2 ± 0.8 µM
- EC50 [9]: 2.2 ± 0.4 µM
- EC50 [10]: 2.1 ± 0.2 µM

Structure (SMILES): CC(C)=CCCC(C)CCO (stereo not drawn) [beta-citronellol]
- Response in single cell Ca2+ imaging ([2]; 10 μM): selectively responded
- Responding OR chimeras ([3]; odorant 10 μM): 22%
- EC50 [1, 15]: 32.8 ± 2.7 µM
- Block of db-cAMP-induced Ca2+ influx by CNGA2 ([5]; at up to 3 mM): did not block
- Response in single cell Ca2+ imaging ([7]; 10 μM): selectively responded
- Response in single cell Ca2+ imaging [11]: selectively responded

Structure (SMILES): Nc1nc2c(ncn2[C@@H]2O[C@@H]3COP(=O)(O)O[C@H]3[C@H]2O)c(=O)[nH]1 [cGMP]
- EC50 [12]: 3 µM
- EC50 for cGMP lower than the one for cAMP [12]: 20 fold

Structure (SMILES): CC(C)=CCCC(C)CC(=O)O (centres unmarked) [citronellic acid]
- Response of the 93 OR chimeras ([3]; up to 10 μM, n=2): None of the 93 OR chimeras responded
- Block of db-cAMP-induced Ca2+ influx by CNGA2 ([5]; at up to 300 μM): did not block

Structure (SMILES): CCCCCCC=O [heptanal]
- EC50 ([1]; stably expressed rho-tag(39)-Olfr49, forskolin-pre-treated, read-out: EC50 for odorant-induced Ca2+ influx): 6 ± 1 µM
- Block of db-cAMP-induced Ca2+ influx by CNGA2 ([5]; at up to 100 μM): did not block
- Ca2+ influx [13]: triggered the Ca2+ influx

Structure (SMILES): O=C(O)CCCCCCCC(=O)O [nonandione acid]
- Ca2+ influx [14]: induced a Ca2+ influx

Structure (SMILES): CCCCCCCC=O [octanal]
- EC50 [1, 15]: 3.7 ± 0.1 µM
- Block of db-cAMP-induced Ca2+ influx by CNGA2 ([5]; at up to 100 μM): did not block

Structure (SMILES): C/C=C(/C)C(=O)O[C@H]1C(C)=C2[C@H]([C@@H]1OC(=O)CCCCCCC)[C@@](C)(OC(C)=O)C[C@H](OC(=O)CCC)[C@@]1(O)[C@H]2OC(=O)[C@@]1(C)O [thapsigargin]
- Effect of pre-treatment on (−)citronellal-induced cAMP production ([6]; cells transfected with hG-alpha-olf): reduced
- Effect of pre-treatment on (−)citronellal-induced cAMP production ([6]; cells without hG-alpha-olf, compared to cells without pre-treatment, forskolin 2.5 μM): significantly increased
